Reference: US5135849A, “In-vitro methods for identifying compositions which are agonists and antagonists of androgens” (priority 1989, dated 1992)

How the values were obtained:
androgen receptor = biological target: T1, androgen receptor (Homo sapiens, UniProt P10275, T878A); test: Competition for androgen receptors with 3H-testosterone in LNCaP cytosol-nuclear extracts (RBA); assay type: binding; settings: Table II, 5α-DHT = 100; 6×10^-9 M 3H-testosterone
T1 construct: the presence of specific androgen receptors in LNCaP cells; endogenous in cells; extract or intact cells for the saturation analysis
Description: (§1) Steroid receptors measurement: The presence of intracellular sex steroid binding proteins was investigated in whole cell extracts as well as in intact cells. Cytosolic and nuclear extracts were obtained after centrifugation (105,000 g, 45 min.) of a sonicated cellular suspension in TKE buffer (10 mM Tris, 500 mM KCl, 0.5 mM EDTA, pH 7.4). Aliquots of this extract were incubated for 18 hours at 4° C. with increasing concentrations (2×10^- M to 2×10^-8 M) of labelled steroids, with and without a 200-fold excess of the corresponding unlabelled steroid. Bound and free fractions were separated by dextran-coated charcoal adsorption. Intact cells grown in monolayer culture were assayed for specific steroid binding [Olea-Serrano et al., Eur. J. Cancer Clin. Oncol. 21:965-973 (1983)]. Briefly, the cells were incubated in 12-well plates during 50 minutes at 37° C. in DME containing the labelled steroid with and without excess of cold competitor. The range of concentrations used was the same as that in the cytosolic-nuclear extract assay. […] The intracellular radioactivity was extracted with ethanol after ice-cold PBS washing. In both types of experiments, Scatchard analysis of the saturation data was used to quantify the maximal binding capacity (Bmax) and the affinity parameters (dissociation constant, Kd) using the SCAFIT program [Munson et al., Anal. Biochem. 107:220-239 (1980)].
Cytosol-nuclear extracts were used to study competition for androgen receptors. […] The relative binding affinity (RBA) was calculated from the equation: […]

LNCaP cells [1] = test: Phase 1 protocol to identify androgen agonist properties (LNCaP cell proliferation in CDHS medium); assay type: cell-based, human; settings: for PHASE 1 CELL COUNT: final cell number per well at the optimal test conc., 10% CDHS; for CHARACTERISTICS: classification from Phase 1 and Phase 2 protocols
Source text: This protocol measures the potential agonistic properties of the substance under test. All manipulations are to be carried out under sterile conditions using disposable plastic tissue culture multiwell plates with all manipulations preferrably being performed in a tissue culture hood.
1. The cell line of choice is the LNCaP-FGC cell culture, an androgen-sensitive prostate tumor cell line. The LNaP cell line is routinely grown in 5% fetal bovine serum--supplemented Dulbecco's modified Eagle minimal essential medium (hereinafter "5% FBS/DME"), at 37° C. in a 95% air--5% CO2 atmosphere.
2. The cultured cells growing in 5% FBS/DME are harvested by treatment with trypsin (1:250)--EDTA (0.2%). The cells are detached by brief exposure to trypsin for about two minutes. To avoid excessive proteolysis, the reaction is quenched by addition of equal volumes of 5% FBS/DME. The resulting cell suspension is collected into a sterile centrifuge tube and resuspended by pipetting gently. The aliquots of this cell suspension thus obtained are dispersed by means of a Skatron dispenser into individual wells containing the seedling medium (1 ml of 5% FBS/DME per well) of a multiwell plate. Each final prepared suspension preferably contains 50,000 cells in a volume of 1.0 ml. It is desirable that the number of cells be counted and verified by means of a Coulter Counter (Coulter Electronics, Hialeah, FL).
The number of wells in each plate will correspond to the number of concentrations per test substances to be evaluated and thus is merely a question of choice or convenience to the user. Into each well, 25 microliter (hereinafter "ul") aliquots of the prepared cell suspension are added using a 1.0 ml syringe fitted with a 19 gauge needle attached to a repetitive Dunn pipetter (Skatron Dispenser). The microtiter plate is then gently shaken to avoid unequal cell distribution within each individual well. The seeded cells are then allowed to attach to the plastic surface of the well proper over a period of 24-72 hours' duration after which the fluid is changed to the experimental maintaining medium.
3 At the time of test, all the seeded cells in each well of the multiwell plate receive 10% heat inactivated--charcoal-dextran human stripped serum (CDHS) in DME at a volume of 0.9 ml per well. Although higher concentrations of CDHS may be utilized up to and including 40% concentrations, the 10% concentration is most preferred.
5. To the other prepared (seeded) wells, 100 ul of the test substance to be evaluated is added as a 10X stock solution to achieve final concentrations ranging from 10^-5 M to at least 10^-12 M. The substance under test is preferably prepared as a stock solution in ethanol, most preferrably as a 10^-3 M solution. All dilutions from the stock preparation are made using DME. The ethanol concentration in the culture medium should be kept below […] by volume. This preparative technique and precaution avoids the need to filter the various volumes of test substance to achieve sterility. This is particularly valuable because steroidal compositions are known to become adsorbed to the commercially obtained filter membranes used for sterilization. The addition of the test substance in appropriate concentrations to the cultured cells and the maintaining medium forms a series of individual reaction mixtures, each of which is varied only by the concentration of the test substance present in the well.
6. After the series of individual reaction mixtures are formed, all of the cultured cells under test in each well of the microtiter plate are incubated at 37° C. preferably in an atmosphere of 5% CO2 /95% air under saturating humidity. During this incubation time, it is desired and preferred that the cultured cells employed in the test be maintained in an atmosphere most advantageous for survival and growth of that cell line. The incubation period preferably is in the range of from 5 to 7 days' duration.

[2] = test system: 3H-E2 binding in LNCaP cells; test: Competition with 3H-E2 binding in LNCaP cells; design: species or system human
Description: as §1

LNCaP cells [3] = test: Proliferation rate (doubling time) of LNCaP cells in 10% CDHS; assay type: cell-based, human; settings: compared with 5α-DHT
Description: 8. To obtain reproducible, accurate, and reliable data consistently using this protocol, a series of quality assurance measures should be employed. […] These goals are achieved using the optimal 5-7 day incubation period. […] For this innoculum, cells are harvested every 24-48 hours (preferably as triplicate samples) until the entire 5-7 day incubation period expires. A good estimate of the proliferation rate is the mean generation time, "tD ". tD is calculated from the equation α=1/txln Ct /Co , where Co is the initial cell number, Ct is the cell number at time-t, and α is the instantaneous cell proliferation constant (tD is the value ln Ct /Co x would have when Ct =2Co) "tD " is expressed in time units, i.e., hr. The slopes of the different growth curves are calculated by fitting the experimental data to a straight line by regression analysis of the pairs ln cell numbers/time. to is defined as the moment at which the seeding medium is replaced by the maintaining medium.
The inhibitory effect of CD human sera was not instantaneous; at the end of 3 to 4 days the population increase was halted and remained stable for up to 30 days without media changes.

LNCaP cells [4] = test: Phase 2 protocol for androgen antagonistic properties (LNCaP proliferation with 3×10^-10 M 5α-DHT plus test substance); settings: Phase 2 protocol

T1 sequence (P10275 whole entry T878A): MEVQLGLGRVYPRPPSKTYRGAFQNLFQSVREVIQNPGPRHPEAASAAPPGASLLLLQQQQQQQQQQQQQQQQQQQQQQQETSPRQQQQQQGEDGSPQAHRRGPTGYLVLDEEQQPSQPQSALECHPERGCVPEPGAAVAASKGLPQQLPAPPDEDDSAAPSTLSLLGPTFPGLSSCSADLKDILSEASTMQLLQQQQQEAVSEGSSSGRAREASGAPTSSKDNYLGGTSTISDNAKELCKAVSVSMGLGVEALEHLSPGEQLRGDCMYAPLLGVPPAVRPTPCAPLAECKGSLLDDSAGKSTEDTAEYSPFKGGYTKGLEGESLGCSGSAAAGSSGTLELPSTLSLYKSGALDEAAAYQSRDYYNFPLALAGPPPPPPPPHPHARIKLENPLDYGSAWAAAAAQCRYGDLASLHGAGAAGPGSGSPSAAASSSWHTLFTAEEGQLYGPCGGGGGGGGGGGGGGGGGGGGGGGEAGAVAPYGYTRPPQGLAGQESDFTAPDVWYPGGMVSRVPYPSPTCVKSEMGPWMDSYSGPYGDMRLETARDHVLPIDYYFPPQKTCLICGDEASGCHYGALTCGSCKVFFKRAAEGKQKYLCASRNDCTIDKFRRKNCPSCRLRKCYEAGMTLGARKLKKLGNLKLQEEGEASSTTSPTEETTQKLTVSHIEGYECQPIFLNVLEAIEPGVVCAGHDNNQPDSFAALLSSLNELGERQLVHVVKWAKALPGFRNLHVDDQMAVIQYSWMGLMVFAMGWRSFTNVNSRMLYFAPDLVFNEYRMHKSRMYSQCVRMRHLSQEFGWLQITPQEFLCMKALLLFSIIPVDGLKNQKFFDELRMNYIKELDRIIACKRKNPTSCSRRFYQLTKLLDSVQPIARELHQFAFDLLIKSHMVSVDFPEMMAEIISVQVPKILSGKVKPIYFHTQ

Compound | RBA (relative binding affinity to the androgen receptor) (androgen receptor) | PHASE 1 CELL COUNT (LNCaP cells [1]) | competition with 3H-E2 binding, in words [2] | population doubling time, in words (LNCaP cells [3]) | antagonistic activity, in words (LNCaP cells [4]) | CHARACTERISTICS (LNCaP cells [1]) | CHARACTERISTICS (LNCaP cells [1]; listed as estradiol-17β)
C#C[C@]1(O)CC[C@H]2[C@@H]3CCc4cc(O)ccc4[C@H]3[C@@H](OC)C[C@@]21C [R2858, 11β-methoxy-19-nor-17a-1,3,5(10)-trien-20-yne-3,17-diol] | < 0.01 | 5 × 10^4 | did not compete | – | – | – | –
C[C@]12CC[C@@H]3c4ccc(O)cc4CC[C@H]3[C@@H]1CC[C@@H]2O [estradiol 17β, estra-1,3,5(10)-triene-3,17-diol] | – | 4.0 × 10^5 | – | slightly shorter population doubling time | no antagonistic activity | full agonist | full agonists
